Results from patent US8134015B2, “Compound inhibiting in vivo phosphorous transport and medicine containing the same” (Kyowa Hakko Kirin Co., Ltd., priority 2003, dated 2012).

Molecular target: T1, rat NaPi-2b (Rattus norvegicus, UniProt Q9JJ09)
T1 construct: expressed in transfected cells; host or cells: Xenopus oocytes injected with cRNA
T1 sequence (Q9JJ09 1-695): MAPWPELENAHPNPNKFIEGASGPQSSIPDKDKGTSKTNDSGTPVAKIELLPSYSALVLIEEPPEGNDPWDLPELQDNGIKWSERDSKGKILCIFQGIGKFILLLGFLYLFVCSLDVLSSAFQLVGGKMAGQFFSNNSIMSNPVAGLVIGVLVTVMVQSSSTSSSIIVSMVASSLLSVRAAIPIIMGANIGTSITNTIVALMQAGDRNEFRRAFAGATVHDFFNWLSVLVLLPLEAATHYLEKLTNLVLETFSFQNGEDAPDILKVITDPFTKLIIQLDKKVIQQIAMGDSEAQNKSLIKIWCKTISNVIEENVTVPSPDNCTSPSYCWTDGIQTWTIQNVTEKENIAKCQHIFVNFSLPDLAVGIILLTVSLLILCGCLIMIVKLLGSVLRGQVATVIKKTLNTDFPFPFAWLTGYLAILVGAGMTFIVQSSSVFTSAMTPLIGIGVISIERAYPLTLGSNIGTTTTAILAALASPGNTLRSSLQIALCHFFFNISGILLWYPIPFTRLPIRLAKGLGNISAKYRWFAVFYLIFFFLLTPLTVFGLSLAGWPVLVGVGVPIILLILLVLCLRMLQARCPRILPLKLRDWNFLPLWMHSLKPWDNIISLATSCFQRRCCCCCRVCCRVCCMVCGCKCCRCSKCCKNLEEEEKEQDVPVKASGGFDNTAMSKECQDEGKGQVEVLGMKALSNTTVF
Test: Sodium-dependent phosphate uptake of Xenopus oocytes which expressed NaPi-2b (32P)
Type: cell-based
Conditions: for IC50: Xenopus oocytes expressing rat NaPi-2b, 32P radioactive phosphorus, read-out: IC50 (phosphate uptake inhibitory activity); for inhibition at 300 µM: phosphate uptake, oocytes expressing rat NaPi-2b, determined from inhibition curve
Method in brief: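 Rat small-intestine NaPi-2b cRNA injected into Xenopus oocytes, expressed for 2 days. Sodium-dependent phosphate uptake measured with 32P; % inhibition at 300 and 100 μM taken from the same inhibition curve.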

IC50 [nM] | inhibition at 300 µM [%] | SMILES
< 1000 |  | CC1CCN(c2ccc(NC(=O)c3cccc(CSCCO)c3)c(C(=O)N/N=C/c3ccc(Cl)c(C(F)(F)F)c3)c2)CC1 [Compound 1070, N-[2-(4-Chloro-3-trifluoromethyl-benzylidene-hydrazinocarbonyl)-4-(4-methyl-piperidin-1-yl)-phenyl]-3-(2-hydroxy-ethylsulfanylmethyl)-benzamide]
6680 |  | COc1ccc(/C=N/NC(=O)c2cc(N3CCCCC3)ccc2NC(=O)c2cccc(CN3CCN(CCO)CC3)c2)cc1 [Compound 869, 3-[4-(2-Hydroxy-ethyl)-piperazin-1-ylmethyl]-N-[2-(4-methoxy-benzylidene-hydrazinocarbonyl)-4-piperidin-1-yl-phenyl]-benzamide]
< 300 |  | COc1ccc(/C=N/NC(=O)c2cc(N3CCCCC3)ccc2NC(=O)c2cccc(CN3CCc4nc5ncccc5cc4C3)c2)cc1 [Compound 898, 3-(7,8-Dihydro-5H-1,6,9-triaza-anthracen-6-ylmethyl)-N-[2-(4-methoxy-benzylidene-hydrazinocarbonyl)-4-piperidin-1-yl-phenyl]-benzamide]
27200 |  | Cc1ccc(/C=N/NC(=O)c2cccnc2NC(=O)c2cccc(CN(CC(C)O)CC(C)O)c2)cc1 (stereo not shown) [Compound 965, 3-{[Bis-(2-hydroxy-propyl)-amino]-methyl}-N-[3-(4-methyl-benzylidene-hydrazinocarbonyl)-pyridin-2-yl]-benzamide]
< 300 |  | O=C(Nc1sc2c(c1C(=O)N/N=C/c1ccc(Cl)c(C(F)(F)F)c1)CCCC2)c1cccc(CSCCCO)c1 [Compound 608, N-[3-(4-Chloro-3-trifluoromethyl-benzylidene-hydrazinocarbonyl)-4,5,6,7-tetrahydro-benzo[b]thiophen-2-yl]-3-(3-hydroxy-propylsulfanylmethyl)-benzamide]
< 300 |  | O=C(Nc1ccc(N2CCCCC2)cc1C(=O)N/N=C/c1ccc(Cl)c(C(F)(F)F)c1)c1cccc(CN2CCc3nc4ncccc4cc3C2)c1 [Compound 897, N-[2-(4-Chloro-3-trifluoromethyl-benzylidene-hydrazinocarbonyl)-4-piperidin-1-yl-phenyl]-3-(7,8-dihydro-5H-1,6,9-triaza-anthracen-6-ylmethyl)-benzamide]
< 3000 |  | O=C(Nc1sc2c(c1C(=O)N/N=C/c1ccc(Cl)c(C(F)(F)F)c1)CCCC2)c1cccc(CN2CCN(CCO)CC2)c1 [Compound 625, N-[3-(4-Chloro-3-trifluoromethyl-benzylidene-hydrazinocarbonyl)-4,5,6,7-tetrahydro-benzo[b]thiophen-2-yl]-3-[4-(2-hydroxy-ethyl)-piperazin-1-ylmethyl]-benzamide]
6910 |  | Cc1cccc(/C=N/NC(=O)c2cc(Br)ccc2NC(=O)c2ccc(CN(CC(C)O)CC(C)O)cc2)c1 (stereo not shown) [Compound 718, 4-{[Bis-(2-hydroxy-propyl)-amino]-methyl}-N-[4-bromo-2-(3-methyl-benzylidene-hydrazinocarbonyl)-phenyl]-benzamide]
1410 |  | COc1cc(/C=N/NC(=O)c2cc(N3CCCCC3)ccc2NC(=O)c2ccc(OC)c(OC)c2)ccc1O [Compound 938, N-[2-(4-Hydroxy-3-methoxy-benzylidene-hydrazinocarbonyl)-4-piperidin-1-yl-phenyl]-3,4-dimethoxy-benzamide]
13100 |  | COc1ccc(/C=N/NC(=O)c2cc(OCCN3CCCCC3)ccc2NC(=O)c2cccc(CSCCO)c2)cc1 [Compound 1045, 3-(2-Hydroxy-ethylsulfanylmethyl)-N-[2-(4-methoxy-benzylidene-hydrazinocarbonyl)-4-(2-piperidin-1-yl-ethoxy)-phenyl]-benzamide]
4440 |  | CCSCCNCc1ccc(C(=O)Nc2ccc(Br)cc2C(=O)N/N=C/c2ccc(Cl)c(C(F)(F)F)c2)cc1 [Compound 769, N-[4-Bromo-2-(4-chloro-3-trifluoromethyl-benzylidene-hydrazinocarbonyl)-phenyl]-4-[(2-ethylsulfanyl-ethylamino)-methyl]-benzamide]

Continued, molecule first:

SMILES | IC50 [nM] | inhibition at 300 µM [%]
CCN(CC)CCN(C)Cc1cccc(C(=O)Nc2ccc(Cl)cc2C(=O)N/N=C/c2ccc(Cl)c(C(F)(F)F)c2)c1 [Compound 384, N-[4-Chloro-2-(4-chloro-3-trifluoromethyl-benzylidene-hydrazinocarbonyl)-phenyl]-3-{[(2-diethylamino-ethyl)-methyl-amino]-methyl}-benzamide] | 250 | 
COc1ccc(C(=O)Nc2ccccc2C(=O)N/N=C/c2ccccn2)cc1OC [Compound 245] |  | 31.7
COc1cccc(/C=N/NC(=O)c2ccccc2NC(=O)c2ccc(OC)c(OC)c2)c1 [Compound 5, 3,4-Dimethoxy-N-[2-(3-methoxy-benzylidene-hydrazinocarbonyl)-phenyl]-benzamide] | 3310 | 
O=C(Nc1ccc(OCCCCF)cc1C(=O)N/N=C/c1cccc(F)c1)c1cccc(CSCCO)c1 [Compound 1051, N-[2-(3-Fluoro-benzylidene-hydrazinocarbonyl)-4-(4-fluoro-butoxy)-phenyl]-3-(2-hydroxy-ethylsulfanylmethyl)-benzamide] | 1160 | 
O=C(Nc1ccc(Cl)cc1C(=O)N/N=C/c1ccc(Cl)c(C(F)(F)F)c1)c1cccc(CSc2nc[nH]n2)c1 [Compound 393, N-[4-Chloro-2-(4-chloro-3-trifluoromethyl-benzylidene-hydrazinocarbonyl)-phenyl]-3-(1H-[1,2,4]triazol-3-ylsulfanylmethyl)-benzamide] | 520 | 
COc1ccc(C(=O)Nc2ccc(Br)cc2C(=O)N/N=C/c2ccc(F)cc2)cc1OC [Compound 61, N-[4-Bromo-2-(4-fluoro-benzylidene-hydrazinocarbonyl)-phenyl]-3,4-dimethoxy-benzamide] | 310 | 
CCN(CCO)Cc1cccc(C(=O)Nc2ccc(Cl)cc2C(=O)N/N=C/c2cccc(O)c2)c1 [Compound 430, N-[4-Chloro-2-(3-hydroxy-benzylidene-hydrazinocarbonyl)-phenyl]-3-{[ethyl-(2-hydroxy-ethyl)-amino]-methyl}-benzamide] | 4530 | 
Cc1ccc(/C=N/NC(=O)c2cc(Br)ccc2NC(=O)c2ccco2)cc1 [Compound 154, Furan-2-carboxylic acid [4-bromo-2-(4-methyl-benzylidene-hydrazinocarbonyl)-phenyl]-amide] | 2370 | 
CCN(CC)CCN(C)Cc1cccc(C(=O)Nc2scc(C)c2C(=O)N/N=C/c2ccc(Cl)c(C(F)(F)F)c2)c1 [Compound 567, N-[3-(4-Chloro-3-trifluoromethyl-benzylidene-hydrazinocarbonyl)-4-methyl-thiophen-2-yl]-3-{[(2-diethylamino-ethyl)-methyl-amino]-methyl}-benzamide] | < 1000 | 
COc1ccc2cc(/C=N/NC(=O)c3ccccc3NC(=O)c3ccc(OC)c(OC)c3)ccc2c1 [Compound 232, 3,4-Dimethoxy-N-[2-(6-methoxy-naphthalen-2-ylmethylene-hydrazinocarbonyl)-phenyl]-benzamide] |  | 44.9
Cc1ccc(/C=N/NC(=O)c2scc(C)c2NC(=O)c2cccc(CN(CC(C)O)CC(C)O)c2)cc1 (stereo not shown) [Compound 540, 3-{[Bis-(2-hydroxy-propyl)-amino]-methyl}-N-[4-methyl-2-(4-methyl-benzylidene-hydrazinocarbonyl)-thiophen-3-yl]-benzamide] |  | 38.4
